In patent US11628160B2, “Compositions and methods for treating brain injury” (Azevan Pharmaceuticals, Inc., priority 2017, dated 2023):

Biological target: T1, human V1a receptor (Homo sapiens, UniProt P37288)
T1 construct: host or cells: CHO cells
Assay: Human vasopressin V1a receptor binding assay
Conditions: hV1a CHO cell line, competition with 1 nM 3H-AVP; for IC50: read-out: V1a Binding Affinity IC50; for Ki: read-out: V1a Ki
Experimental: EXAMPLE. Human vasopressin V1a receptor binding assay. A cell line expressing the human V1a receptor in CHO cells (henceforth referred to as the hV1a cell line) was obtained from Dr. Michael Brownstein, NIMH, Bethesda, Md., USA. The hV1a cDNA sequence is described by Thibonnier et al., Journal of Biological Chemistry, 269, 3304-3310 (1994), and the expression method was the same as described by Morel et al. (1992). The hV1a cell line was grown in alpha-MEM with 10% fetal bovine serum and 250 ug/ml G418 (Gibco, Grand Island, N.Y., USA). For competitive binding assay, hV1a cells were plated into 6-well culture plate at 1:10 dilution from a confluency flask, and maintained in culture for at least two days. Culture medium was then removed, cells were washed with 2 ml binding buffer (25 mM Hepes, 0.25% BSA, 1×DMEM, PH=7.0). To each well, 990 μl binding buffer containing 1 nM 3H-AVP was added, and followed by 10 μl series diluted Example compounds dissolved in DMSO. […] 100 nM cold AVP (Sigma) was used to assess non-specific binding. Cells were incubated for 45 minutes at 37° C., assay mixture was removed and each well was washed three times with PBS (pH=7.4). 1 ml 2% SDS was added per well and plates were let sit for 30 minutes. The whole content in a well was transferred to a scintillation vial. Each well was rinsed with 0.5 ml PBS which was then added to the corresponding vial. Scintillation fluid (Ecoscint, National Diagnostics, Atlanta, Ga.) was then added at 3 ml per vial. Samples were counted in a liquid scintillation counter (Beckman LS3801). IC50 values were calculated by Prism Curve fitting software.
All of the alkanedioic esters and amides exemplified in the foregoing examples dissolved in DMSO were tested in this assay. Binding curves were generated according to methods described by Thibonnier et al. (1994). [^3H]-AVP was added to the hV1a cell cultures followed by 10-fold dilutions of each test compound.

T1 sequence (P37288 whole entry): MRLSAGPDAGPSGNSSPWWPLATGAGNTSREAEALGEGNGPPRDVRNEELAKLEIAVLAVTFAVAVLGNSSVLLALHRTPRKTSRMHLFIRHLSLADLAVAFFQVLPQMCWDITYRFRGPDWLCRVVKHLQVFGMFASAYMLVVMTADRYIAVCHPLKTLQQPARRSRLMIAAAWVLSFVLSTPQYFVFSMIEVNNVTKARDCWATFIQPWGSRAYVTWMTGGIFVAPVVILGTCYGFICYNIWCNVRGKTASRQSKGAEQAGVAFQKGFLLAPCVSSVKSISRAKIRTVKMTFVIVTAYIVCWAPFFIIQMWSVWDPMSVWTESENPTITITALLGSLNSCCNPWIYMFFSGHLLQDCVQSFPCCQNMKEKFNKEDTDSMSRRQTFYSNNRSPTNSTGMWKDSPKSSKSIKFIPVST

Compound	IC50 [nM]	Ki [nM]
O=C(NCc1cc(Cl)ccc1Cl)C(CCC(=O)N1CCN(C2CCCCC2)CC1)N1C(=O)C(N2C(=O)OCC2c2ccccc2)C1C=Cc1ccccc1 (centres unmarked) [Example 175]	4.56	2.79
O=C(NCc1cccnc1)C(CCC(=O)N1CCN(C2CCCCC2)CC1)N1C(=O)C(N2C(=O)OCC2c2ccccc2)C1C=Cc1ccccc1 (centres unmarked) [Example 209]	16	9.8
O=C(NC1CCCc2ccccc21)C(CCC(=O)N1CCN(C2CCCCC2)CC1)N1C(=O)C(N2C(=O)OCC2c2cccc(Cl)c2)C1C=Cc1cccc(Cl)c1 (centres unmarked) [Example 251]	0.5	0.3
O=C(NC1Cc2ccccc2C1)C(CCC(=O)N1CCN(C2CCCCC2)CC1)N1C(=O)C(N2C(=O)OCC2c2ccccc2)C1C=Cc1ccccc1 (centres unmarked) [Example 221P]	1.7	1.1
O=C(NC1CCCc2ccccc21)C(CCC(=O)N1CCN(C2CCCCC2)CC1)N1C(=O)C(N2C(=O)OCC2c2ccccc2)C1C=Cc1ccccc1Cl (centres unmarked) [Example 250]	6.5	4
O=C(NCc1cccs1)C(CCC(=O)N1CCN(C2CCCCC2)CC1)N1C(=O)C(N2C(=O)OCC2c2ccccc2)C1C=Cc1ccccc1 (centres unmarked) [Example 213]	0.78	0.48
O=C(NCc1cc(Cl)cc(Cl)c1)C(CCC(=O)N1CCN(C2CCCCC2)CC1)N1C(=O)C(N2C(=O)OCC2c2ccccc2)C1C=Cc1ccccc1 (centres unmarked) [Example 174]	1.46	0.89
O=C(NCc1ccccc1)C(CCC(=O)N1CCN(C2CCCCC2)CC1)N1C(=O)C(N2C(=O)OCC2c2ccccc2)C1C=Cc1ccccc1 (centres unmarked) [Example 191]	2.92	1.79
O=C(NCc1cccc(C(F)(F)F)c1)C(CCC(=O)N1CCN(C2CCCCC2)CC1)N1C(=O)C(N2C(=O)OCC2c2ccccc2)C1C=Cc1ccccc1 (centres unmarked) [Example 120H]	2.75	1.68
O=C(CC[C@@H](C(=O)N[C@@H]1CCCc2ccccc21)N1C(=O)[C@@H](N2C(=O)OC[C@@H]2c2ccccc2)[C@H]1/C=C/c1ccccc1)N[C@@H]1CCN(Cc2ccccc2)C1 [Example 221AD]	~50	
N#Cc1cccc(C=CC2C(N3C(=O)OCC3c3ccccc3)C(=O)N2C(CCC(=O)N2CCN(C3CCCCC3)CC2)C(=O)NC2CCCc3ccccc32)c1 (centres unmarked) [Example 248]	5.3	3.3
COc1cccc(C=CC2C(N3C(=O)OCC3c3ccccc3)C(=O)N2C(CCC(=O)N2CCN(C3CCCCC3)CC2)C(=O)NC2CCCc3ccccc32)c1 (centres unmarked) [Example 242]	2.2	1.36
CCN1CCN(C(=O)CCC(C(=O)NC2(c3ccccc3)CCCC2)N2C(=O)C(N3C(=O)OCC3c3ccccc3)C2C=Cc2ccccc2)CC1 (centres unmarked) [Example 239]	6.6	4
O=C(NC1CCCc2ccccc21)C(CCC(=O)N1CCN(C2CCCCC2)CC1)N1C(=O)C(N2C(=O)OCC2c2ccccc2)C1C=Cc1cccc([N+](=O)[O-])c1 (centres unmarked) [Example 249]	1.7	1
O=C(NC1(c2ccccc2)CCCC1)C(CCC(=O)N1CCN(C2CCCCC2)CC1)N1C(=O)C(N2C(=O)OCC2c2ccccc2)C1C=Cc1ccccc1 (centres unmarked) [Example 217]	3.17	1.94
CC(NC(=O)C(CCC(=O)N1CCN(C2CCCCC2)CC1)N1C(=O)C(N2C(=O)OCC2c2ccccc2)C1C=Cc1ccccc1)c1ccccc1 (centres unmarked) [Example 206]	1.58	0.97
O=C(NCc1cccc(C(F)(F)F)c1)[C@H](CC(=O)N1CCN(C2CCCCC2)CC1)N1C(=O)[C@@H](N2C(=O)OC[C@@H]2c2ccccc2)[C@H]1/C=C/c1ccccc1 [Example 66]	50	
O=C(NCc1cccc(Cl)c1Cl)C(CCC(=O)N1CCN(C2CCCCC2)CC1)N1C(=O)C(N2C(=O)OCC2c2ccccc2)C1C=Cc1ccccc1 (centres unmarked) [Example 176]	0.61	0.38
O=C(NCc1cccc(C(F)(F)F)c1)C(CC(=O)N1CCN(N2CCCC2)CC1)N1C(=O)C(N2C(=O)OCC2c2ccccc2)C1C=Cc1ccccc1 (centres unmarked) [Example 134B]	44.8	27.5

Compound	IC50 [nM]	Ki [nM]
CC(C)(NC(=O)C(CCC(=O)N1CCN(C2CCCCC2)CC1)N1C(=O)C(N2C(=O)OCC2c2ccccc2)C1C=Cc1ccccc1)c1ccccc1 (centres unmarked) [Example 204]	6	3.7
O=C(NCc1ccccc1F)C(CC(=O)N1CCC(N2CCCCC2)CC1)N1C(=O)C(N2C(=O)OCC2c2ccccc2)C1CCc1ccccc1 (centres unmarked) [Example 677]		3
CC(NC(=O)C(CC(=O)N1CCC(N2CCCCC2)CC1)N1C(=O)C(N2C(=O)OCC2c2ccccc2)C1CCc1cccc([N+](=O)[O-])c1)c1ccccc1 (centres unmarked) [Example 597]	6.2	3.8
Cc1ccc(CNC(=O)C(CCC(=O)N2CCN(C3CCCCC3)CC2)N2C(=O)C(N3C(=O)OCC3c3ccccc3)C2C=Cc2ccccc2)o1 (centres unmarked) [Example 212]	0.95	0.58
O=C(NC1CCCc2ccccc21)C(CCC(=O)N1CCN(C2CCCCC2)CC1)N1C(=O)C(N2C(=O)OCC2c2ccccc2)C1C=Cc1cccc(Cl)c1 (centres unmarked) [Example 243]	0.5	0.3
CN(Cc1cccc(C(F)(F)F)c1)C(=O)C(CC(=O)N1CCC(N2CCCCC2)CC1)N1C(=O)C(N2C(=O)OCC2c2ccccc2)C1C=Cc1cccc(Cl)c1 (centres unmarked) [Example 247]	0.6	0.39
CCN1CCCC1CNC(=O)CCC(C(=O)NC1CCCc2ccccc21)N1C(=O)C(N2C(=O)OCC2c2ccccc2)C1C=Cc1ccccc1 (centres unmarked) [Example 221AI]	~50	
CC(NC(=O)C(CC(=O)N1CCC(N2CCCCC2)CC1)N1C(=O)C(N2C(=O)OCC2c2ccccc2)C1CCc1cccc(N)c1)c1ccccc1 (centres unmarked) [Example 600]	14.4	8.8
O=C(NC1CCCc2ccccc21)C(CCC(=O)N1CCN(C2CCCCC2)CC1)N1C(=O)C(N2C(=O)OCC2c2ccccc2)C1C=Cc1cccc(F)c1 (centres unmarked) [Example 245]	1.1	0.68
O=C(NCc1ccccc1Br)C(CC(=O)N1CCC(N2CCCCC2)CC1)N1C(=O)C(N2C(=O)OCC2c2ccccc2)C1CCc1ccccc1 (centres unmarked) [Example 682]		0.9
CCCCN(Cc1ccccc1)C(=O)[C@H](CCC(=O)N1CCN(C2CCCCC2)CC1)N1C(=O)[C@@H](N2C(=O)OC[C@@H]2c2ccccc2)[C@H]1/C=C/c1ccccc1 [Example 198]	~100	
CC(NC(=O)C(CC(=O)N1CCC(N2CCCCC2)CC1)N1C(=O)C(N2C(=O)OCC2c2ccccc2)C1CCc1cccc(Cl)c1)c1ccccc1 (centres unmarked) [Example 559]	0.12	0.073
O=C(NCc1ccncc1)C(CCC(=O)N1CCN(C2CCCCC2)CC1)N1C(=O)C(N2C(=O)OCC2c2ccccc2)C1C=Cc1ccccc1 (centres unmarked) [Example 210]	29.5	18.1
COc1cc(OC)cc(C(C)(C)NC(=O)C(CCC(=O)N2CCN(C3CCCCC3)CC2)N2C(=O)C(N3C(=O)OCC3c3ccccc3)C2C=Cc2ccccc2)c1 (centres unmarked) [Example 218]	7.7	4.7
O=C(NC1(c2ccccc2)CCCC1)C(CCC(=O)N1CCN(C2CCCCC2)CC1)N1C(=O)C(N2C(=O)OCC2c2ccccc2)C1C=Cc1cccc(Cl)c1 (centres unmarked) [Example 244]	3.4	2.1
O=C(NCc1ccccn1)C(CCC(=O)N1CCN(C2CCCCC2)CC1)N1C(=O)C(N2C(=O)OCC2c2ccccc2)C1C=Cc1ccccc1 (centres unmarked) [Example 208]	16.3	10
CC(NC(=O)C(CC(=O)N1CCC(N2CCCCC2)CC1)N1C(=O)C(N2C(=O)OCC2c2cccc(Cl)c2)C1C=Cc1ccccc1)c1ccccc1 (centres unmarked) [Example 256]	2.8	1.7
O=C(NCc1cccc([N+](=O)[O-])c1)C(CCC(=O)N1CCN(C2CCCCC2)CC1)N1C(=O)C(N2C(=O)OCC2c2ccccc2)C1C=Cc1ccccc1 (centres unmarked) [Example 189]	1.7	1.04
